From patent US20230241057A1, “COMPOUNDS FOR THE PREVENTION, TREATMENT AND DIAGNOSIS OF THROMBI” (INSERM (INSTITUT NATIONAL DE LA SANTÉ ET DE LA RECHERCHE …, priority 2020, published 2023)

Assays:
[1] = system: thrombus material (DNA and proteins); details: coated nitinol disks vs bare metal; thrombus slice 5 minutes at 37° C. in human plasma; Hoechst 33342 / Evans Blue staining
Protocol: Polydopamine (1 mg/ml in tris buffer, pH 8.5, 22±2 hours)
A fresh thrombus was prepared with human whole blood additioned with PMA 100 nM and ionomycin 1 μM to promote strong leukocyte activation leading to the release of extracellular chromatin within the thrombus. Slice of the same thrombus were layered onto coated and bare metal disks in the wells of a 48-well plate, covered with human plasma and incubated at 37° C. on an orbital shaker for 5 minutes. The thrombus slices were mechanically removed using tweezers, the disk washed in PBS and stained with a solution made of Hoechst 33342 (1 μg/ml, to stain DNA) and Evans Blue (3%, to stain proteins) in PBS for 5 minutes. […] The image analysis was performed using the Image J open software.

[2] = system: extracellular chromatin (NETs); experiment: Extracellular chromatin (NETs) binding to coated nitinol disks, Sytox Green staining; design: species or system human; details: for Chomatin binding (% of max): coated nitinol disks applied 3 minutes on nigericin-stimulated human neutrophils, mean±SEM, 6/coating; for Chromatin/Platelet binding ratio: ratio of chromatin binding to platelet binding (% of max)
From the text: (§1) Nitinol disks are left untouched (bare metal) or coated with the tested chromatin ligands following a polydopamine, DBCO-PEG4-amine and azide derivative ligand sequential dip-coating layering procedure.
Extracellular chromatin adhering to the disk surface was stained with the cell impermeant nuclear dye Sytox Green.
(§2) Each dot corresponds to the mean binding (% of max, mean±SEM) of chromatin (X-axis) and platelet (Y-axix) with the standard error bars parallel to the respective axis.
(§3) Different linkers were combined with piperaquine and the resulting azide derivatives were used for coating nitinol disks (N=6 for each compound), following the described 3-step dip-coating procedure. Platelet adhesion (left panel) was evaluated by analyzing the surface and intensity of the phalloidin staining (green fluorescence) after immersion of the disks (N^o=6/coating) for 10 min in blood withdrawn in PPAK (thrombin inhibitor providing a transient anticoagulation). The binding of extracellular chromatin was evaluated by applying for 3 minutes the disks on the bottom of wells in which fresh human neutrophils were stimulated with nigericin for 4 hours, to promote the formation of neutrophil extracellular traps (NETs). Extracellular chromatin was stained with the cell impermeant nuclear dye Sytox Green.

[3] = system: blood platelets; experiment: Platelet adhesion to coated nitinol disks, phalloidin-AlexaFluor 488 staining; type: cell-based; details: for Platelet binding (% of max): coated nitinol disks immersed 10 min in blood withdrawn in PPAK, mean±SEM, 6/coating
From the text: as §1, §2, §3

[4] = coated disk compared to bare metal

| SMILES | DNA and proteins captured from the thrombus (Integrated Density) [1] | Chomatin binding (% of max) [2] | Chromatin/Platelet binding ratio [2] | Platelet binding (% of max) [3] | Chromatin binding (example disk image, in words) [2, 4] | Platelet binding (example disk image, in words) [3, 4] |
| --- | --- | --- | --- | --- | --- | --- |
| CSc1ccc2c(c1)N(CCC1CCCCN1C)c1ccccc1S2 (centres unmarked) [thioridazine] | capture more DNA and proteins | – | – | – | – | – |
| Cn1cc(NC(=O)c2cc(NC(=O)c3cc(NC=O)cn3C)cn2C)cc1C(=O)NCCC(=N)N [Distamycin, reference compound] | – | 12.26 ± 4.14 % of max | 0.99 | 12.42 ± 1.72 % of max | – | – |
| [N-]=[N+]=NCCOCCOCCNC(=O)c1cc2cc(N(CCCl)CCCl)ccc2o1 [MBF, N-(2-(2-(2-azidoethoxy)ethoxy)ethyl)-5-(bis(2-chloroethyl)amino)benzofuran-2-carboxamide] | – | 66.07 ± 13.21 % of max | 2.85 | 23.18 ± 4.05 % of max | high | low platelet binding |
| [N-]=[N+]=NCCOCCOCCNC(=O)CCc1ccc(N(CCCl)CCCl)cc1 [PPM, N-(2-(2-(2-azidoethoxy)ethoxy)ethyl)-3-(4-(bis(2-chloroethyl)amino)phenyl)propanamide] | – | 36.75 ± 5.78 % of max | 0.75 | 48.8 ± 5.59 % of max | – | – |
| O=C(O)c1cn(C2CC2)c2cc(N3CCNCC3)c(F)cc2c1=O [Ciprofloxacin, reference compound] | – | 23.63 ± 9.59 % of max | – | 27.57 ± 3.22 % of max | – | – |
| CCCCCOCCCCCN=[N+]=[N-] [Pipe-2] | – | 57.5 7.05 % of max | 3.59 | 16 ± 5.78 % of max | – | – |
